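Following 48 hours of exposure in 96-well plates, responses at five concentrations were used to interpolate endpoints linearly. GI50 is the concentration that inhibits growth by half. TGI marks complete inhibition of growth.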
What was measured:
Experiment in all cases: DTP human tumour cell line panel, 48 h
UACC-62 melanoma = test system: UACC-62 melanoma
MDA-MB-435 = test system: MDA-MB-435
KM12 colon = test system: KM12 colon
A498 renal = test system: A498 renal
SN12C renal = test system: SN12C renal
OVCAR-3 ovarian = test system: OVCAR-3 ovarian
HOP-92 NSCLC = test system: HOP-92 NSCLC
K-562 leukemia = test system: K-562 leukemia
PC-3 prostate = test system: PC-3 prostate
A549 NSCLC = test system: A549 NSCLC

SMILES	TGI (UACC-62 melanoma)	TGI (MDA-MB-435)	TGI (KM12 colon)	TGI (A498 renal)	TGI (SN12C renal)	TGI (OVCAR-3 ovarian)	TGI (HOP-92 NSCLC)	TGI (K-562 leukemia)	TGI (PC-3 prostate)	GI50 (A549 NSCLC)	TGI (A549 NSCLC)	GI50 (UACC-62 melanoma)	GI50 (MDA-MB-435)	GI50 (KM12 colon)	GI50 (A498 renal)	GI50 (SN12C renal)	GI50 (OVCAR-3 ovarian)	GI50 (HOP-92 NSCLC)	GI50 (PC-3 prostate)	GI50 (K-562 leukemia)
O=C(Nc1cc(Cl)c(I)c(Cl)c1)C(F)(F)F	48.9 µM	> 100 µM	85.4 µM	47.8 µM	> 100 µM	81.2 µM	46.9 µM	81.8 µM	83.8 µM											
COc1ccc(/C=C\c2cc(OC)c(OC)c(OC)c2)cc1NC(=O)/C=C/c1ccc(OC)c(OC)c1	> 100 µM	1.71 µM	> 100 µM	> 100 µM	> 100 µM	> 100 µM	> 100 µM		> 100 µM	4.89 µM	> 100 µM	3.67 µM	0.348 µM	3.91 µM	0.184 µM	5.43 µM	6.41 µM	> 100 µM	3.9 µM	
COc1ccc([N+](=O)[O-])c2c(NCCCN(C)C)c(C)c(C)nc12	> 100 µM	> 100 µM	> 100 µM	> 100 µM	> 100 µM	> 100 µM	> 100 µM	> 100 µM	> 100 µM		> 100 µM									
O=C(O)CCCN1C(=O)/C(=C/C(Cl)=C/c2ccccc2)SC1=S	3.62 µM	5.96 µM	3.54 µM	3.57 µM	6.79 µM	3.21 µM	9.78 µM	16.3 µM	10.3 µM	3.02 µM	11.9 µM	1.47 µM	1.94 µM	1.47 µM	1.96 µM	2.05 µM	1.39 µM	3.17 µM	2.23 µM	1.52 µM
O=[N+]([O-])c1ccccc1/C=N\NC(=S)N/N=C/c1ccccc1[N+](=O)[O-]	> 100 µM	3.62 µM	> 100 µM	28.4 µM	> 100 µM	4.72 µM	> 100 µM	> 100 µM	> 100 µM	8.92 µM	> 100 µM	4.52 µM	0.426 µM	2.55 µM	2.49 µM	10.6 µM	1.95 µM	26.2 µM	10 µM	3.43 µM
CNc1c2ccccc2nc2occ(Cl)c12	> 100 µM	79.9 µM	> 100 µM	41.7 µM	> 100 µM	75.2 µM	> 100 µM	> 100 µM	> 100 µM	31 µM	> 100 µM	33.3 µM	17.2 µM	32.6 µM	11.9 µM	52.6 µM	24 µM	26.9 µM	26.5 µM	26.4 µM
NCC(=O)Nc1ccc(Cl)cc1C(=O)c1ccc[nH]1	> 100 µM	> 100 µM	> 100 µM	> 100 µM	> 100 µM	> 100 µM	> 76.5 µM	> 100 µM	> 100 µM		> 100 µM									
OCc1c(-c2cccs2)oc(-c2cccs2)c1CO	> 100 µM	> 100 µM	> 100 µM	91.7 µM		> 100 µM	> 100 µM	> 100 µM	> 100 µM	54.9 µM	> 100 µM	35.3 µM	46.9 µM	21.3 µM	34.3 µM		48.1 µM	42.8 µM	37.7 µM	41 µM
COc1ccc(-c2nc(NC(=O)CS(=O)(=O)c3ccc(F)cc3)sc2C)cc1	32.9 µM	12.1 µM	61 µM	32.8 µM	52.5 µM	39.9 µM	48 µM	> 100 µM	94.7 µM			13.1 µM	3.29 µM	14.6 µM	11.6 µM	19 µM	15.7 µM	14.2 µM	21.1 µM	3.94 µM
CN(C)CCNC(=O)c1ccc2c(c1)oc1cc3ccccc3c(=O)n12	33.8 µM	32.7 µM	45.3 µM		30.6 µM	30.4 µM	38.4 µM	> 100 µM	> 100 µM	12.3 µM	27.5 µM	17.4 µM	15.1 µM	17 µM		15.4 µM	13.2 µM	9.78 µM	28.7 µM	35.4 µM
CC(C)(C)OC(=O)N(CCCCN(CCCn1c2c(c3ccccc3c1=O)C(=O)c1ccccc1-2)C(=O)OC(C)(C)C)CCCn1c2c(c3ccccc3c1=O)C(=O)c1ccccc1-2	> 100 µM	> 100 µM	> 100 µM		> 100 µM	> 100 µM	> 100 µM	> 100 µM	> 100 µM	18.9 µM	> 100 µM	92.8 µM	68.7 µM	79.6 µM		36 µM	69.6 µM	97 µM	27.7 µM	90.5 µM

Reference: PubChem BioAssay (NCI)
